Test results: patent US6391913B1 (priority 1998, dated 2002)
Where two headings read alike, the source gives them in different places.

Assays:
CCL6 cells = assay: Cytotoxicity of derivatives on CCL6 cell line (Alamar Blue assay, ID50); format: cell-based
Method: The cytotoxicity activity of the derivatives was evaluated on CCL6 cell line. The cells were maintained in RPMI 1640 supplemented with fetal calf serum 10% at 37° C., under a 5% CO2 atmosphere. Cells were plated at 2500 cells per well in 96 well plates. Drugs or derivatives were added 24 hours later. After three days of incubation with drugs or derivatives, 10 μl of Alamar Blue were added to the medium. The Alamar assay was performed as described by Pagé et al. (Pagé, B., et al., Int. J. Oncol., 3, 473-476, 1993), and the ID50 was calculated.

[1] = Chloroform extraction (chloroform-water), mixed one hour, HPLC
[2] = Ratio ID50 of derivative/ID50 of paclitaxel, CCL6 cells, three days of incubation, Alamar Blue

Molecule | relative ID* CCL6 (CCL6 cells; [2]) | relative ID* CCL6 (CCL6 cells) | Organic phase/aqueous phase [1]
2′-[N-(aminohexyl)-amidohexanoic acid]paclitaxel ester [Taxamine 5] | 13 |  | 
CC(=O)OC1C(=O)C2(C)C(O)CC3OCC3(OC(C)=O)C2C(OC(=O)c2ccccc2)C2(O)CC(OC(=O)C(OC(=O)CCCCCCCCC(=O)O)C(NC(=O)c3ccccc3)c3ccccc3)C(C)=C1C2(C)C (centres unmarked) [Product 5, 2′-(decanedioic acid)-paclitaxel monoester] |  | 20 | 
CC(=O)OC1C(=O)C2(C)C(O)CC3OCC3(OC(C)=O)C2C(OC(=O)c2ccccc2)C2(O)CC(OC(=O)C(OC(=O)CCCCC(=O)NCCN)C(NC(=O)c3ccccc3)c3ccccc3)C(C)=C1C2(C)C (centres unmarked) [Taxamine 1, 2′-[N-(aminoethyl)-amidohexanoic acid]-paclitaxel ester] | 24 |  | 151
CC(=O)O[C@H]1C(=O)[C@@]2(C)[C@H]([C@H](OC(=O)c3ccccc3)[C@]3(O)C[C@H](OC(=O)[C@H](O)[C@@H](NC(=O)c4ccccc4)c4ccccc4)C(C)=C1C3(C)C)[C@]1(OC(C)=O)CO[C@@H]1C[C@@H]2O [paclitaxel, reference compound] | 1 |  | 
